In patent US20230295119A1, “SUBSTITUTED PYRIDINES FOR THE TREATMENT OF INFLAMMATORY DISEASES” (GOSSAMER BIO SERVICES, INC., priority 2020, published 2023):

Experiments:
[1] = biological target: human JAK1 (Homo sapiens (Human), UniProt P23458); assay: JAK1 TR-FRET kinase assay; assay type: biochemical; details: TR-FRET, JAK1 2.5 nM
[2] = biological target: TYK2 JH2 domain (Homo sapiens (Human), UniProt P29597); assay: TYK2 JH2 NanoBRET assay; assay type: binding; details: Table 20, read-out: TYK2 IC50
Chain of TYK2 JH2 domain (P29597 589-875): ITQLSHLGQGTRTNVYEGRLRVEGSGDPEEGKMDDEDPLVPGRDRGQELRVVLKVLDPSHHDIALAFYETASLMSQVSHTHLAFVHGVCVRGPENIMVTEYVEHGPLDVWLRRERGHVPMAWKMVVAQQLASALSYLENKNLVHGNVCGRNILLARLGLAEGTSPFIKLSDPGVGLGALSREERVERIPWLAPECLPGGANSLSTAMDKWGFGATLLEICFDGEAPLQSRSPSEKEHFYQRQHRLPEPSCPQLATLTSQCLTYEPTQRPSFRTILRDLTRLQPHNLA
In short: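 HEK293T cells transiently expressing NanoLuc-TYK2 JH2 fusion, incubated 2 h with compound and NanoBRET K10 tracer (0.5 µM final). Target engagement read as acceptor/donor BRET ratio after Nano-Glo substrate plus extracellular NanoLuc inhibitor.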

[3] = biological target: human JAK2 (Homo sapiens (Human), UniProt O60674); assay: JAK2 TR-FRET kinase assay; assay type: biochemical; details: JAK2 0.025 nM
Chain of human JAK2 (O60674 whole entry): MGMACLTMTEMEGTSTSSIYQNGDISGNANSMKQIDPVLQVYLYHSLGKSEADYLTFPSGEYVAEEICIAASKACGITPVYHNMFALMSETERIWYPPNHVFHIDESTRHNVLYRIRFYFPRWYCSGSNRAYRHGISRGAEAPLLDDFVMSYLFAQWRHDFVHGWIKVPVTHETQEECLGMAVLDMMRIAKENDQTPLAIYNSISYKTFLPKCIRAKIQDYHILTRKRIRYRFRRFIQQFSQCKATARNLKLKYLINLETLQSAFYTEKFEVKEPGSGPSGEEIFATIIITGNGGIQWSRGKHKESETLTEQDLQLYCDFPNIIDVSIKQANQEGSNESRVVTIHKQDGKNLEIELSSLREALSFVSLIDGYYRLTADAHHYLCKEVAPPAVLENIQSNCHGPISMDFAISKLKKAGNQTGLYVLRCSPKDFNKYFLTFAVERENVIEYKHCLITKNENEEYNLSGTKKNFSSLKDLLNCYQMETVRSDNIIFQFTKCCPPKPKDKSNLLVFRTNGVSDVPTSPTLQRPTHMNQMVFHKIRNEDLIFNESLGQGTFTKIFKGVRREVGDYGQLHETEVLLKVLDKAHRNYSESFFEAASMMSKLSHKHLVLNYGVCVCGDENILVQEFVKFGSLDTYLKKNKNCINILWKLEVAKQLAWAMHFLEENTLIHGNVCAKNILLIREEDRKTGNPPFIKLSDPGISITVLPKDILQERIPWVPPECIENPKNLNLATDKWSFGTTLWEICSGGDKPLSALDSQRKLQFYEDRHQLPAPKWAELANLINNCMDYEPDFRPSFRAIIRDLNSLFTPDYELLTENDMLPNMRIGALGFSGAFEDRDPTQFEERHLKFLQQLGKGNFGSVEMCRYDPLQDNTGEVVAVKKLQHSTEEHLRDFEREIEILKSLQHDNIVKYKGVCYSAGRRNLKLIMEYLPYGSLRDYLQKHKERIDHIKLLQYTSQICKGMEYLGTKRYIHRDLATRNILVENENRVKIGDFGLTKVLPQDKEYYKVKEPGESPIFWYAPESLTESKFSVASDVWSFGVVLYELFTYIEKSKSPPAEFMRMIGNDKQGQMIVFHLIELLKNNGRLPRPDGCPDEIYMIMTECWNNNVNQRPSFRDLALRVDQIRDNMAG

[4] = biological target: human JAK3 (Homo sapiens (Human), UniProt P52333); assay: JAK3 TR-FRET kinase assay; assay type: biochemical; details: JAK3 0.0125 nM
Chain of human JAK3 (P52333 whole entry): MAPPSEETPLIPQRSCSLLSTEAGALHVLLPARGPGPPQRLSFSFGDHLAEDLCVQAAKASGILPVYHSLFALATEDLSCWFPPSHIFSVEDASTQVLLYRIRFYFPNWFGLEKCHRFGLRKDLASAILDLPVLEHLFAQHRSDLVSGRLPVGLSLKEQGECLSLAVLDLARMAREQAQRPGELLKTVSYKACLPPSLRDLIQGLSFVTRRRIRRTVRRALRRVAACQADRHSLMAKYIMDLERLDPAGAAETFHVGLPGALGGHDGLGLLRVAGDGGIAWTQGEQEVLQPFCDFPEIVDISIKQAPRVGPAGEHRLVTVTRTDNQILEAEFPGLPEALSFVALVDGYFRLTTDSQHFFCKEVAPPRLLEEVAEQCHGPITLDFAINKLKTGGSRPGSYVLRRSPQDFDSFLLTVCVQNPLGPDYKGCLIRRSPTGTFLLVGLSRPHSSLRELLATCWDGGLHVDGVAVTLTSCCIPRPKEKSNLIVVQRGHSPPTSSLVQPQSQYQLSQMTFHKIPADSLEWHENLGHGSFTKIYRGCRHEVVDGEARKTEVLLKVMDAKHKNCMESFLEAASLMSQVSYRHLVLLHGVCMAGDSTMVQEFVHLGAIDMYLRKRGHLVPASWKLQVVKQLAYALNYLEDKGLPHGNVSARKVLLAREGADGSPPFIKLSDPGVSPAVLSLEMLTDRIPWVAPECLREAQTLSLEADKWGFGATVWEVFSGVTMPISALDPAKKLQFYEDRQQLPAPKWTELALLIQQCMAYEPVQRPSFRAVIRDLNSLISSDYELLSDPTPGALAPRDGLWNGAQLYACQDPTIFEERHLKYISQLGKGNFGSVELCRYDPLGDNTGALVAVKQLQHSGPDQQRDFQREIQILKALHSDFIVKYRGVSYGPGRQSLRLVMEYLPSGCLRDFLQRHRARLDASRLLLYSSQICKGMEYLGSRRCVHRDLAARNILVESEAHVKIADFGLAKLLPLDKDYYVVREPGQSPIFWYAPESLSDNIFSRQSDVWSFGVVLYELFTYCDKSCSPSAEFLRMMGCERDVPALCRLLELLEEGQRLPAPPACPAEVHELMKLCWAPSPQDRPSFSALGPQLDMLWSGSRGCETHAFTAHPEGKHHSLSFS

Chain of human JAK1 (P23458 whole entry, the tested form may be a part): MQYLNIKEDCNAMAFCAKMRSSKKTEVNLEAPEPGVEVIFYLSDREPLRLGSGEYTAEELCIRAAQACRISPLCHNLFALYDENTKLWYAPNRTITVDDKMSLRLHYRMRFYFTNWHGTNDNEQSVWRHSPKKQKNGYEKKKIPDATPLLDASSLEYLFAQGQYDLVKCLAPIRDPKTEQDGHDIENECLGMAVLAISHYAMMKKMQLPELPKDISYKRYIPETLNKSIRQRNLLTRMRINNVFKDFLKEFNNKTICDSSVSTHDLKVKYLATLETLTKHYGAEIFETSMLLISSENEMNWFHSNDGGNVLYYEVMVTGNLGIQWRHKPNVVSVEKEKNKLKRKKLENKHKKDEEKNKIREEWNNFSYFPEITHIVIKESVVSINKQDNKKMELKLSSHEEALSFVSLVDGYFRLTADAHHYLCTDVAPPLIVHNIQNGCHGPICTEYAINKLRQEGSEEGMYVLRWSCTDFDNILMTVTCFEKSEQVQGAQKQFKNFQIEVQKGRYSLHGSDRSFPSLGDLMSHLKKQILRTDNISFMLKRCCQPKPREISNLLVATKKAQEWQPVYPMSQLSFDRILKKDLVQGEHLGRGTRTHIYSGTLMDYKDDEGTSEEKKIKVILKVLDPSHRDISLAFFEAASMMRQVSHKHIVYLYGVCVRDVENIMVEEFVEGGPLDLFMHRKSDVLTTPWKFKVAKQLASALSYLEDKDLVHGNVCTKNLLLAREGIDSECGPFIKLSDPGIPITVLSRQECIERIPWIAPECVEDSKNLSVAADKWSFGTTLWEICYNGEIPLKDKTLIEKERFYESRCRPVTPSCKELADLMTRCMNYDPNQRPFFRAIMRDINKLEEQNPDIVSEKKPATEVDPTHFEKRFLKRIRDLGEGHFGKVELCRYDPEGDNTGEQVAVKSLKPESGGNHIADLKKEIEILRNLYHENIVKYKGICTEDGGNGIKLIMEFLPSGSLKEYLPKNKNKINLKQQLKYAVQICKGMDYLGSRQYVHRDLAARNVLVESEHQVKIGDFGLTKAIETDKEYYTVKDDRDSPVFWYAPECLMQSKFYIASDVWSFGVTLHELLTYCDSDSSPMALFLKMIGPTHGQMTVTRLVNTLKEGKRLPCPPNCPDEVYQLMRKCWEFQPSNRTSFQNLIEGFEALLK

Row | SMILES | IC50 [1] | IC50 [2] | IC50 [3] | IC50 [4]
1 | CCC(=O)c1cnc(Nc2ccc(-n3ccnc(C)c3=O)cn2)cc1Nc1cccc(-c2ncn(C)n2)c1OC [Compound 15X] | ≥ 500 nM | 5 to 50 nM | 50 to 500 nM | 50 to 500 nM
2 | CCC(=O)c1cnc(Nc2ccc(CN(C)CC(F)F)cn2)cc1Nc1cccc(-c2ncn(C)n2)c1OC [Compound 9Y] | ≥ 500 nM | 5 to 50 nM | ≥ 500 nM | ≥ 500 nM
3 | CCC(=O)c1cnc(Nc2csc(CN3CCCC3)n2)cc1Nc1cccc(-c2ncn(C)n2)c1OC [Compound 21F] | ≥ 500 nM | 5 to 50 nM | ≥ 500 nM | ≥ 500 nM
4 | CCC(=O)c1cnc(Nc2ccc(S(=O)(=O)CC)cn2)cc1Nc1cccc(-c2ncn(C)n2)c1OC [Compound 13G] | ≥ 500 nM | < 5 nM | ≥ 500 nM | ≥ 500 nM
5 | CCC(=O)c1cnc(Nc2ccc(OCCOC)cn2)cc1Nc1cccc(-c2ncn(C)n2)c1OC [Compound 18D] | ≥ 500 nM | 5 to 50 nM | ≥ 500 nM | 50 to 500 nM
6 | COc1c(Nc2cc(Nc3ccc(OC[C@@H](O)CO)cn3)ncc2C(=O)C2CC2)cccc1-c1ncn(C)n1 [Compound 18I] | ≥ 500 nM | 5 to 50 nM | ≥ 500 nM | ≥ 500 nM
7 | CCC(=O)c1cnc(Nc2cnc(C(F)(F)CN(C)C)cn2)cc1Nc1cccc(-c2ncn(C)n2)c1OC [Compound 19C] | ≥ 500 nM | 5 to 50 nM | ≥ 500 nM | ≥ 500 nM
8 | CCC(=O)c1cnc(Nc2ccc(C(C)N(C)C)nn2)cc1Nc1cccc(-c2ncn(C)n2)c1OC (stereo not shown) [Compound 9KKK] | ≥ 500 nM | < 5 nM | ≥ 500 nM | ≥ 500 nM
9 | CCC(=O)c1cnc(Nc2cnc(C(F)(F)CO)cn2)cc1Nc1cccc(-c2ncn(C)n2)c1OC [Compound 19D] | ≥ 500 nM | 5 to 50 nM | ≥ 500 nM | ≥ 500 nM
10 | [2H]C([2H])([2H])CC(=O)c1cnc(Nc2ccn(-c3ccccc3)c(=O)n2)cc1Nc1cccc(-c2ncn(C)n2)c1OC [Compound 15T] | ≥ 500 nM | < 5 nM | ≥ 500 nM | ≥ 500 nM
11 | CCC(=O)c1cnc(Nc2ccc(OC[C@@H](O)CO)cn2)cc1Nc1cccc(-c2ncn(C)n2)c1OC [Compound 18F] | ≥ 500 nM | 5 to 50 nM | ≥ 500 nM | 50 to 500 nM
12 | CCC(=O)c1cnc(Nc2cc(C(C)N)ncn2)cc1Nc1cccc(-c2ncn(C)n2)c1OC (stereo not shown) [Compound 9OOOO] | ≥ 500 nM | < 5 nM | ≥ 500 nM | ≥ 500 nM
13 | CCC(=O)c1cnc(Nc2cccc(C(=O)N(C)C)n2)cc1Nc1cccc(-c2ncn(C)n2)c1OC [Compound 8L] | ≥ 500 nM | 5 to 50 nM | ≥ 500 nM | ≥ 500 nM
14 | CCC(=O)c1cnc(NC(=O)CC2CN(C)C2)cc1Nc1cccc(-c2ncn(C)n2)c1OC [Compound 23G] | ≥ 500 nM | ≥ 500 nM | ≥ 500 nM | ≥ 500 nM
15 | CCC(=O)c1cnc(Nc2cc(CN3CCOCC3)ccn2)cc1Nc1cccc(-c2ncn(C)n2)c1OC [Compound 9KKKK] | ≥ 500 nM | < 5 nM | ≥ 500 nM | 50 to 500 nM
16 | COc1c(Nc2cc(Nc3ccc(-n4ccnc4)cn3)ncc2C(=O)C2CC2)cccc1-c1ncn(C)n1 [Compound 15Q] | ≥ 500 nM | < 5 nM | ≥ 500 nM | ≥ 500 nM
17 | CCC(=O)c1cnc(Nc2ccnc(OCCO)n2)cc1Nc1cccc(-c2ncn(C)n2)c1OC [Compound 180] | ≥ 500 nM | < 5 nM | ≥ 500 nM | ≥ 500 nM
18 | CCC(=O)c1cnc(Nc2ccc(C(C)NCC(F)(F)F)cn2)cc1Nc1cccc(-c2ncn(C)n2)c1OC (stereo not shown) [Compound 9Z] | ≥ 500 nM | 5 to 50 nM | 50 to 500 nM | ≥ 500 nM
19 | CCC(=O)c1cnc(Nc2ccc(-n3ccccc3=O)cn2)cc1Nc1cccc(-c2ncn(C)n2)c1OC [Compound 15A, 6′-((4-((2-methoxy-3-(1-methyl-1H-1,2,4-triazol-3-yl)phenyl)amino)-5-propionylpyridin-2-yl)amino)-2H-[1,3′-bipyridin]-2-one] | ≥ 500 nM | < 5 nM | ≥ 500 nM | ≥ 500 nM
20 | CCC(=O)c1cnc(Nc2cnc(OCCNC)cn2)cc1Nc1cccc(-c2ncn(C)n2)c1OC [Compound 18NN] | ≥ 500 nM | < 5 nM | ≥ 500 nM | ≥ 500 nM
21 | CCC(=O)c1cnc(Nc2ccc(O[C@@H]3CCN(C)C3)cn2)cc1Nc1cccc(-c2ncc(F)cn2)c1OC [Compound 18VVV] | ≥ 500 nM | 5 to 50 nM | ≥ 500 nM | 50 to 500 nM
22 | CCC(=O)c1cnc(Nc2ccc(-c3cnn(C)c3)cn2)cc1Nc1cccc(-c2ncn(C)n2)c1OC [Compound 15D] | ≥ 500 nM | < 5 nM | ≥ 500 nM | ≥ 500 nM

Row | SMILES | IC50 [1] | IC50 [2] | IC50 [3] | IC50 [4]
23 | CCC(=O)c1cnc(Nc2ccc(CS(C)(=O)=O)cn2)cc1Nc1cccc(-c2ncn(C)n2)c1OC [Compound 13A, 1-(4-((2-methoxy-3-(1-methyl-1H-1,2,4-triazol-3-yl)phenyl)amino)-6-((5-((methylsulfonyl)methyl)pyridin-2-yl)amino)pyridin-3-yl)propan-1-one] | ≥ 500 nM | < 5 nM | 50 to 500 nM | 50 to 500 nM
24 | CCC(=O)c1cnc(Nc2ccc(-n3nc(C)ccc3=O)cn2)cc1Nc1cccc(-c2ncn(C)n2)c1OC [Compound 15Z] | ≥ 500 nM | 5 to 50 nM | ≥ 500 nM | ≥ 500 nM
25 | CCC(=O)c1cnc(Nc2ccc(-n3ccnc3)cn2)cc1Nc1nccc(-c2ncn(C)n2)c1OC [Compound 15P] | ≥ 500 nM | < 5 nM | ≥ 500 nM | ≥ 500 nM
26 | CCC(=O)c1cnc(Nc2cnc(C(NC)C(F)(F)F)cn2)cc1Nc1cccc(-c2ncn(C)n2)c1OC (stereo not shown) [Compound 9UUU] | ≥ 500 nM | 5 to 50 nM | ≥ 500 nM | ≥ 500 nM
27 | CCC(=O)c1cnc(Nc2cnc(C3(NC)CC3)cn2)cc1Nc1cccc(-c2ncn(C)n2)c1OC [Compound 9ZZZ] | ≥ 500 nM | 5 to 50 nM | ≥ 500 nM | ≥ 500 nM
28 | CCC(=O)c1cnc(Nc2ccn([C@H]3C[C@H](C#N)C3)n2)cc1Nc1cccc(-c2ncn(C)n2)c1OC [Compound 210] | ≥ 500 nM | 5 to 50 nM | ≥ 500 nM | ≥ 500 nM
29 | CCC(=O)c1cnc(Nc2ccc(-n3ccccc3=O)cn2)cc1Nc1nccc(-c2ncn(C)n2)c1OC [Compound 15U] | ≥ 500 nM | 5 to 50 nM | ≥ 500 nM | ≥ 500 nM
30 | CCC(=O)c1cnc(Nc2ccc(CN3CC4(CCO4)C3)cn2)cc1Nc1cccc(-c2ncn(C)n2)c1OC [Compound 9ZZ] | ≥ 500 nM | < 5 nM | ≥ 500 nM | ≥ 500 nM
31 | CCC(=O)c1cnc(Nc2cc(C(=O)NC)ncn2)cc1Nc1cccc(-c2ncn(C)n2)c1OC [Compound 8N] | ≥ 500 nM | < 5 nM | ≥ 500 nM | ≥ 500 nM
32 | CCC(=O)c1cnc(Nc2nc(CN(C)C)ccc2F)cc1Nc1cccc(-c2ncn(C)n2)c1OC [Compound 9UUUU] | ≥ 500 nM | 50 to 500 nM | ≥ 500 nM | ≥ 500 nM
33 | CCC(=O)c1cnc(Nc2cnc(O[C@@H]3C[C@H](C)N(C)C3)cn2)cc1Nc1cccc(-c2ncn(C)n2)c1OC [Compound 18MMM] | ≥ 500 nM | 5 to 50 nM | ≥ 500 nM | ≥ 500 nM
34 | CCC(=O)c1cnc(Nc2cnc(OCCN3CC(F)C3)cn2)cc1Nc1cccc(-c2ncn(C)n2)c1OC [Compound 18PP] | ≥ 500 nM | 5 to 50 nM | ≥ 500 nM | ≥ 500 nM
35 | CCC(=O)c1cnc(Nc2ccc(S(C)(=O)=O)cn2)cc1Nc1cccc(C(C)(C)O)c1OC [Compound 13Y] | ≥ 500 nM | 50 to 500 nM | ≥ 500 nM | ≥ 500 nM
36 | CCC(=O)c1cnc(Nc2cc(C(=O)N(C)C)ccn2)cc1Nc1cccc(-c2ncn(C)n2)c1OC [Compound 8H] | ≥ 500 nM | < 5 nM | ≥ 500 nM | ≥ 500 nM
37 | CCC(=O)c1cnc(Nc2cnc(C3(N)CC3)cn2)cc1Nc1cccc(-c2ncn(C)n2)c1OC [Compound 9YYY] | ≥ 500 nM | 5 to 50 nM | ≥ 500 nM | ≥ 500 nM
38 | CCC(=O)c1cnc(Nc2ccnc(OC3CN(C)C3)n2)cc1Nc1cccc(-c2ncn(C)n2)c1OC [Compound 18JJ] | ≥ 500 nM | 5 to 50 nM | ≥ 500 nM | ≥ 500 nM
39 | CCC(=O)c1cnc(Nc2ccn(CC3COC3)n2)cc1Nc1cccc(-c2ncn(C)n2)c1OC [Compound 21R] | ≥ 500 nM | 5 to 50 nM | ≥ 500 nM | 50 to 500 nM
40 | CCC(=O)c1cnc(Nc2cnc(C(N(C)C)C(F)(F)F)cn2)cc1Nc1cccc(-c2ncn(C)n2)c1OC (stereo not shown) [Compound 9VVV] | ≥ 500 nM | 5 to 50 nM | ≥ 500 nM | ≥ 500 nM
41 | CCC(=O)c1cnc(Nc2ccc([C@@H](C)N(C)C)cn2)cc1Nc1cccc(-c2ncn(C)n2)c1OC [Compound 9J] | ≥ 500 nM | < 5 nM | ≥ 500 nM | ≥ 500 nM
42 | CCC(=O)c1cnc(Nc2ccc(C(NC)C(F)(F)F)cn2)cc1Nc1cccc(-c2ncn(C)n2)c1OC (stereo not shown) [Compound 9S] | ≥ 500 nM | < 5 nM | 50 to 500 nM | ≥ 500 nM
43 | CCC(=O)c1cnc(Nc2cnc(OCCN3CC[C@@H](F)C3)cn2)cc1Nc1cccc(-c2ncn(C)n2)c1OC [Compound 18YY] | ≥ 500 nM | 5 to 50 nM | ≥ 500 nM | ≥ 500 nM
